We go through eleven molecules from US12673918B2, “Small molecule RPN13 inhibitors with antitumor properties” (The Johns Hopkins University, priority 2019, dated 2026).

Like-named read-outs stand apart in the source and are kept apart here.

Series [1] relates to HeLa. Kind of series: MTT cytotoxicity assay, HeLa. Conditions: read-out: cytotoxicity IC50 HeLa, Tables 3A/4B/4C. In general terms: Tetrazolium dyes change colour on reduction, which living cells bring about.
The subject of a further series is SKOV3. Kind of series: MTT cytotoxicity assay, SKOV3.
In series [2] the test system is HeLa. The note with it: human.
A further series concerns SSC90. The note with it: human.
Series [3] concerns VU93.
The next series deals with FaDu. As to the kind of experiment: cells. Conditions: Homo sapiens, read-out: cytotoxicity IC50 FaDu.
The next series concerns TOV21G. As to the kind of experiment: MTT cytotoxicity assay, TOV21G. Conditions: read-out: cytotoxicity IC50 TOV21G; Tables 3A/4B/4C; MTT assay.
In another series the test system is OV2008. As to the kind of experiment: MTT cytotoxicity assay, OV2008. The note with it: read-out: cytotoxicity IC50 OV2008.
A further series relates to ID8-vegf. As to the kind of experiment: MTT cytotoxicity assay, ID8-vegf. The note with it: read-out: cytotoxicity IC50 ID8-vegf, Tables 3A/4B/4C.
Another series relates to ES2. Kind of series: MTT cytotoxicity assay, ES2. Conditions: read-out: cytotoxicity IC50 ES2; Tables 3A/4B/4C; MTT assay.
The test system of another series is MCF7. As to the kind of experiment: MTT cytotoxicity assay, MCF7. Conditions: read-out: cytotoxicity IC50 MCF7, Tables 3A/4B/4C.
Another series concerns OVCAR3. Kind of series: MTT cytotoxicity assay, OVCAR3. The note with it: read-out: cytotoxicity IC50 OVCAR3; Tables 3A/4B/4C; MTT assay.
A further series has as its system HCC1395. As to the kind of experiment: MTT cytotoxicity assay, HCC1395. The note with it: Homo sapiens, HCC1395, read-out: cytotoxicity IC50 HCC1395.
Another series deals with DLD1. Kind of series: MTT cytotoxicity assay, DLD1. Conditions: Homo sapiens, DLD-1, read-out: cytotoxicity IC50 DLD1.
The next series deals with DLD-BRCA2-Ve. As to the kind of experiment: MTT cytotoxicity assay, DLD-BRCA2-Ve. Conditions: read-out: cytotoxicity IC50 DLD-BRCA2-Ve.
Another series concerns BR5-Luc. Kind of series: MTT cytotoxicity assay, BR5-Luc. The note with it: read-out: cytotoxicity IC50 BR5-Luc, Tables 3A/4B/4C, BRCA2 − VE.
The next series has as its system BR5-FvB1. Kind of series: MTT cytotoxicity assay, BR5-FvB1. The note with it: Mus musculus, read-out: cytotoxicity IC50 BR5-FvB1.
A short description of series [4]: MTT cytotoxicity assay, RPE1. The note with it: human, RPE1 cells.
Procedure: (§2) Cell lines and cytotoxicity assays: All cell lines were obtained from the American Type Culture Collection (ATCC) and cultured in the specified medium supplemented with 10% fetal bovine serum, 100 IU/mL penicillin, and 100 μg/mL streptomycin at 37° C. in a humidified 5% CO2/95% air incubator. […] To assess drug cytotoxicity, cells were seeded at 2,500 cells/well (10,000 cells/well for MM lines) in 100 μL medium in 96-well plate and after 24 treated with compounds for 72 h, incubated according to the manufacturer's protocol with the Thiazolyl Blue Tetrazolium Bromide (Sigma, M2128) and A570 measured using a Benchmark Plus microplate spectrophotometer (BIO-RAD). IC50 data was analyzed by Graphpad Prism software. In the chirality studies the cells were treated with compounds for 48 h, and the cells were incubated and measured via the preceeding protocols.
For series [5], the system named is VU93. As to the kind of experiment: MTT cytotoxicity assay, VU93. Conditions: read-out: cytotoxicity IC50 VU93, Tables 3A/4B/4C.
In the next series the test system is C2KmFvB1. Kind of series: MTT cytotoxicity assay, C2KmFvB1. The note with it: read-out: cytotoxicity IC50 C2KmFvB1, Tables 3A/4B/4C, BRCA2 + Ve.
The next series relates to DLD-Seckle. As to the kind of experiment: MTT cytotoxicity assay, DLD-Seckle. The note with it: read-out: cytotoxicity IC50 DLD-Seckle.
Another series concerns RPE1-ATMKO. Kind of series: MTT cytotoxicity assay, RPE1-ATMKO. The note with it: read-out: cytotoxicity IC50 RPE1-ATMKO.
The test system of a further series is HeLa cells. Kind of series: XTT cytotoxicity assay, HeLa. Type of series: cell-based, human. The text has this:
(§1) The impact of substituents of the aromatic ring on the potency of molecules was also examined. The presence of either an electron withdrawing group (EWG) or an electron donating group (EDG) influences the reactivity of a Michael acceptor towards the target protein but can also impact specificity/selectivity.

In the next series the test system is SKOV3 cells. Kind of series: XTT cytotoxicity assay, SKOV3. Type of series: cell-based, human.
Text: as §1

For series [6], the system named is high molecular weight polyubiquitinated proteins. Kind of series: Western blot of polyubiquitinated proteins, ES2 cells. The note with it: 1 μM, 4 hr. Type of series: cell-based, human. The method, then:
FIG. 1C illustrates ES2 cells treated with compounds (1 μM, 4 hr), lysed and the samples probed with ubiquitin or actin-specific antibody by Western blot analysis.
Antibodies, reagents, and Western Blot Analyses: Cell lysate (10-20 μg total protein) prepared in MPER (Pierce) from each sample was subjected to SDS-PAGE, transferred to PVDF membranes and analyzed by Western blot using antibodies specific Bax (#2772, Cell Signaling), ubiquitin (P4D1, sc-8017, Santa Cruz), PARP (#9542, BD Pharmingen), actin (#66009, Protein Tech Group), Tubulin(#66031, Protein Tech Group), ADRM1/Rpn13 (D9Z1U, #12019, Cell Signaling), Lys48-linkled ubiquitin (Apu 2, 05-1307, (Millipore), Annexin V (#559763, BD pharmingen), caspase-3 (51-68655X, BD Pharmingen) at the dilutions recommended by the manufacturers, and for secondary antibodies either peroxidase-linked anti-mouse IgG or anti-rabbit IgG (GE Healthcare UK Ltd) were utilized, HRP conjugated streptavidin (N100, Thermo Fisher) at the recommended dilution (1:5000). MitoTracker Red CMXRos reagent was purchased from ThermoFisher #M7512. The blots were developed using HyGLO chemiluminescent detection reagent (Denville).

Another series addresses RPN13 (Homo sapiens, UniProt Q16186). As to the kind of experiment: Competition with RA190B labeling of 42 kDa cellular target in cell lysate. The format is binding. Further details: endogenous in cells; running text says HeLa) and OV2008 cell lysates. Conditions: cell lysate pre-incubated with compounds (20 μM), then RA190B; HRP-streptavidin blot. The method, then: FIG. 1B illustrates precleared ES2 cell lysate incubated with compounds (20 μM) or vehicle (DMSO, 1:100) for 45 min and then with RA190B (5 μM) for 45 min at 4° C. by Western blot analysis. Samples were subjected to SDS-PAGE, transfer to PVDF membrane, and after probing with HRP-streptavidin, binding was detected using chemiluminescence.
FIG. 2B illustrates precleared OV2008 cell lysate incubated with compounds (20 μM) or vehicle (DMSO, 1:100) for 45 min and then with RA190B (10 μM) for 45 min at 4° C. by Western blot analysis. Samples were subjected to SDS-PAGE, transfer to PVDF membrane, and binding of HRP-streptavidin, detected using chemiluminescence.
Biotinylated RA190 (RA190B, FIG. 1A) is utilized as a probe to detect covalent binding to its cellular target(s) in detergent lysates of cancer cell lines (10). […] Here, the ability of compounds (FIG. 1A) to compete with RA190B binding to its 42 kDa cellular target (FIG. 1B) were examined. Compounds, including bortezomib as a negative control, were incubated with HeLa cell lysate and then RA190B added.
Biotin labeling Assay: Clarified cell lysate in MPER buffer was pretreated with streptavidin magna beads for 45 min at 4° C. to deplete non-specific biotinylated proteins in the cell lysate. The beads were separated and 40 μL of the pre-cleared cell lysate was incubated with compounds (20 μM) for 45 min at 4° C., and then treated with RA183B, RA190B, or RA413SB (10 μM) for 45 min at 4° C. Next, the samples were mixed with Laemmli sample buffer (BioRad) and boiled for 5 min. […] (24 V). The membrane was blocked with 5% BSA in PBST for 1 hr at RT and washed for 20 minutes (3× with PBST). Then the membrane was probed with HRP-streptavidin (1:10,000 in PBST) for 1 hr at RT, washed for 30 min (3× with PBST), and developed using HyGLO chemiluminescent detection reagent (Denville) for biotin detection.

The mark [7] stands for this setting: Homo sapiens, SK-OV-3, read-out: cytotoxicity IC50 SKOV3.
[8] abbreviates: Table 1, XTT assay, read-out: IC50 HeLa.
The mark [9] stands for this setting: Table 1, XTT assay, read-out: IC50 SKOV3.

Chain of RPN13 (Q16186 whole entry): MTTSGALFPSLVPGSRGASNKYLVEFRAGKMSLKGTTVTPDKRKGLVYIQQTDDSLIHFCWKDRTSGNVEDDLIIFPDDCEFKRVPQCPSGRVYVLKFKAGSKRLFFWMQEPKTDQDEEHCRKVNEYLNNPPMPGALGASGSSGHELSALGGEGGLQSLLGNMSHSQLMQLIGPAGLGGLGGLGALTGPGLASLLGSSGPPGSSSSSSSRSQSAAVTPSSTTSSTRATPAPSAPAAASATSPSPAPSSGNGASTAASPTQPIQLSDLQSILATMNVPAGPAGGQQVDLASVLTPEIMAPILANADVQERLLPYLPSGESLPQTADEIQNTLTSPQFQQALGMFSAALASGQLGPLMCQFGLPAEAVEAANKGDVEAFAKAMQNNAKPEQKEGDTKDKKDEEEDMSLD
Procedure for BR5-FvB1: as §2
Procedure for DLD-BRCA2-Ve: as §2
Procedure for DLD-Seckle: as §2
Procedure for DLD1: as §2
Procedure for OV2008: as §2
Procedure for RPE1-ATMKO: as §2

As to `CC1NCC(=Cc2ccc([N+](=O)[O-])cc2)C(=O)C1=Cc1ccc([N+](=O)[O-])cc1` (racemic) [RA411], the IC50 in the series on HeLa [1] is 16 nM; in the series on SKOV3 (read-out: cytotoxicity IC50 SKOV3, Tables 3A/4B/4C, MTT assay), 257 nM.
As to `CC1/C(=C\c2ccc([N+](=O)[O-])cc2)C(=O)/C(=C/c2ccc([N+](=O)[O-])cc2)CN1C(=O)[C@@H](N)Cc1ccccc1` (mixture of isomers) [RA413], the IC50 with HeLa [2] was found to be 96 nM; in the series with SSC90 it was 312 nM; in the series on VU93 [3] it was 625 nM; in the series on FaDu it was 300 nM; in the series with SKOV3 (setting [7]), 86 nM; in the series with TOV21G, 42 nM. Also, the IC50 in the series on OV2008 worked out at 150 nM; in the series with ID8-vegf, 192 nM.
As for `CC1/C(=C\c2ccc(F)cc2)C(=O)/C(=C/c2ccc(F)cc2)CN1C(=O)[C@@H](N)Cc1ccccc1` (mixture of isomers) [RA462], the IC50 in the series on ES2 turned out to be 96 nM; with MCF7, 750 nM; with SKOV3 (setting [7]), 112 nM; with OVCAR3, 105 nM; in the series with HCC1395, 250 nM; in the series on ID8-vegf, 123 nM.
Consider `CC1/C(=C\c2ccccc2F)C(=O)/C(=C/c2ccccc2F)CN1C(=O)[C@@H](N)Cc1ccccc1` (mixture of isomers) [RA467], for which the IC50 in the series with ES2 came out at 112 nM; in the series on DLD1, 474 nM; in the series on MCF7, 750 nM; in the series with SKOV3 (setting [7]), 126 nM; in the series on OVCAR3, 120 nM; with HCC1395, 250 nM. Besides, the IC50 is 167 nM in the series on ID8-vegf and 502 nM in the series with DLD-BRCA2-Ve.
As for `COc1cccc2c1C(=O)c1c(O)c3c(c(O)c1C2=O)C[C@@](O)(C(=O)CO)C[C@@H]3O[C@H]1C[C@H](N)[C@H](O)[C@H](C)O1` [DOX, Doxorubicin], the values for the IC50 with BR5-Luc and in the series on BR5-FvB1 were 237 nM and under 20 nM, respectively.
Consider `O=C(c1cc(Cc2n[nH]c(=O)c3ccccc23)ccc1F)N1CCN(C(=O)C2CC2)CC1` [OLA, olaparib, reference compound], for which the IC50 in the series with DLD1 is 23000 nM; in [4], 23200 nM; in the series on VU93 [5], 30 nM; in the series with BR5-Luc it was 500 nM; in the series with HCC1395, 750 nM; with BR5-FvB1, 30 nM. For the same molecule, the IC50 came out at 7960 nM in the series on C2KmFvB1, 1.7 nM with DLD-Seckle, 2.6 nM in the series on RPE1-ATMKO and 2.5 nM with DLD-BRCA2-Ve.
With `Cl.NC(Cc1ccccc1)C(=O)N1CC(=CC=Cc2ccccc2)C(=O)C(=CC=Cc2ccccc2)C1` (centres unmarked) [RA181C], the IC50 in the series with HeLa cells (setting [8]) and with SKOV3 cells (setting [9]) was over 2500 nM each time. Further, in series [6], the “accumulation of high molecular weight polyubiquitinated proteins” value (“accumulation” for short) is listed as “only minimal accumulation of polyubiquitinated proteins”. Moreover, at RPN13, the “competition with RA190B binding to 42 kDa cellular target” value (“competition with RA190B binding” below) is on record as “failed to compete binding by RA190B”.
Take `Cl.NC(Cc1ccccc1)C(=O)N1CC(=Cc2ccccc2)C(=O)C(=Cc2ccccc2)C1` (centres unmarked) [RA181]: the results for the IC50 with HeLa cells (setting [8]) and in the series on SKOV3 cells (setting [9]) were 63 nM and 89 nM, respectively. Moreover, the “accumulation” value in [6] is listed as “rapid accumulation of high molecular weight polyubiquitinated proteins”. Further, at RPN13, the “competition with RA190B binding” value is recorded as “competed labeling by RA190B to a greater extent”.
For the molecule `CC1(C)CN(C(=O)[C@@H](N)Cc2ccccc2)C/C(=C\c2ccc(Cl)c(Cl)c2)C1=O` [RA190H], the IC50 with HeLa cells (Homo sapiens, HeLa, Table 1, XTT assay, read-out: IC50 HeLa) came out at 562 nM. For the same molecule, in the series on HeLa cells (cytotoxicity, Table 1 cell lines (HeLa, SKOV3)), the “fold decreased potency compared to RA190” value stood at 6 fold. For the same molecule, the “accumulation” value in series [6] is given as “only weakly caused an accumulation of high molecular weight polyubiquitinated proteins”. The “competition with RA190B binding” value on RPN13 is “competed labeling by RA190B to a greater extent”.
As to `Cl.NC(Cc1ccccc1)C(=O)N1C2CCC1C(=Cc1ccc(Cl)c(Cl)c1)C(=O)C2=Cc1ccc(Cl)c(Cl)c1` (centres unmarked) [RA338], the IC50 was found to be 66 nM with HeLa cells (Table 2, read-out: IC50 HeLa (bridge compounds)) and 81 nM in the series on SKOV3 cells (Table 2, read-out: IC50 SKOV3 (bridge compounds)). In series [6], the “accumulation” value is given as “rapid accumulation of high molecular weight polyubiquitinated proteins”. Also, the “competition with RA190B binding” value at RPN13 was “competed labeling by RA190B to a greater extent”.
As for `CC[C@]1(O)C[C@H]2CN(CCc3c([nH]c4ccccc34)[C@@](C(=O)OC)(c3cc4c(cc3OC)N(C=O)[C@H]3[C@@](O)(C(=O)OC)[C@H](OC(C)=O)[C@]5(CC)C=CCN6CC[C@]43[C@@H]65)C2)C1` [Vin, Vincristine], the IC50 in the series on C2KmFvB1 was found to be 13.4 nM.
